In paper PMC9385671 (Nature Communications, 2022):
Several values for one entry are separate records, joined by “and”; a condition that tells them apart may be missing. Identical values can stand only once. Like-named read-outs stand apart in the source and are kept apart here.

How the values were obtained:
[1] = test system: MjTyrRS variants; experiment: Intact cell fluorescence assay of HYs incorporation into SUMO-sfGFP; type: cell-based, Methanocaldococcus jannaschii
Experimental: (§1) The intact cell fluorescence assay was performed to approximately compare the Br2Y and Cl2Y incorporation efficiency of screened MjTyrRSs as well as to estimate their promiscuity against other Tyr analogues. Since the gene expression of SUMO-sfGFP was driven by T5 promoter on the one round positive selection plasmid, SUMO-sfGFP can be directly expressed in DH10b strain. […] Next day, an overnight culture was inoculated in a well at a ratio of 1:100 containing 300 μL TB medium supplemented with 50 μg/mL Kan,100 μg/mL Amp, 0.5 mM IPTG as well as 1 mM HYs while the corresponding control lacked the HYs. Cells were grown in 96 well plates (Ibidi) with orbital shaking (2 mm amplitude) for 24 h at 37 °C covered with a gas-permeable foil (Sigma Aldrich, Taufkirchen, Germany). […] After 24 h incubation, the optimal density and fluorescence was measured via top reading after the gas-permeable foil was removed. Each measurement was done in triplicate.

[2] = target: T1, MjTyrRS variants (Methanocaldococcus jannaschii, UniProt Q57834, D158A/F108Q/H70G/L162N/L65E/Q109C/Y32G); experiment: as above; type: cell-based; conditions: for Fluorescence Instensity: Synthetase B48RS
T1 construct: expressed in transfected cells
Experimental: as §1

[3] = target: T2, MjTyrRS variants (Methanocaldococcus jannaschii, UniProt Q57834, D158A/F108N/H70G/L162C/L65E/Y32V); experiment: as above; type: cell-based; conditions: Synthetase C64RS
T2 construct: expressed in transfected cells
Experimental: as §1

[4] = target: FtsZ-YFP-mts (Escherichia coli, UniProt P0A9A6); type: biochemical; parameters: made in house; host or cells: E. coli BL21(DE3) for the wild type; conditions: 5 μM protein, 1 mM GTP; for GTPase activity, Average: average of two repeats; for GTPase activity, single repeats: repeat 1 and repeat 2
Experimental: Reactions were performed every 20 s for a total time of 120 s. After 30 min of incubation with BIOMOL® GREEN at room temperature, the absorbance of the samples at 620 nm was monitored by TECAN plate reader. The phosphate release concentrations were calculated based on a phosphate standard curve.

[5] = Side-chain acidity: pKa by 1H NMR titration of free amino acids; type: physicochemical; conditions: for pKa: aqueous KH2PO4 solution titrated with sodium hydroxide; for pKa of the phenolic side-chain: experimental error ±0.15
Experimental: 10–20 mg of an amino acid, 50 mg of KH2PO4 was dissolved in 15 ml of water and titrated by sodium hydroxide solution to distinct pH values. 500 μl were taken to NMR tubes, 50 μl deuterium oxidewas added and ^1H NMR spectra were measured using W5 pulse tray water suppression at 500 MHz frequency. The chemical shifts were plotted against pH and analyzed using Henderson-Hasselbalch equation to deliver the pKa values. Experimental error ±0.15.

[6] = target: the molecule itself; experiment: dynamic light scattering; 12.5 µM FtsZ in SLB buffer (50 mM Tris-HCl pH 7.5, 150 mM KCl), 25 °C, 90° light scattering; polymerisation started by adding 4 mM GTP, followed for at least 70 min
[7] = experimental error ±0.15, read-out: Ammonium pKa
[8] = experimental error ±0.15, read-out: pKa of the phenolic side-chain

T1 sequence (Q57834 whole entry Y32G/L65E/H70G/F108Q/Q109C/D158A/L162N): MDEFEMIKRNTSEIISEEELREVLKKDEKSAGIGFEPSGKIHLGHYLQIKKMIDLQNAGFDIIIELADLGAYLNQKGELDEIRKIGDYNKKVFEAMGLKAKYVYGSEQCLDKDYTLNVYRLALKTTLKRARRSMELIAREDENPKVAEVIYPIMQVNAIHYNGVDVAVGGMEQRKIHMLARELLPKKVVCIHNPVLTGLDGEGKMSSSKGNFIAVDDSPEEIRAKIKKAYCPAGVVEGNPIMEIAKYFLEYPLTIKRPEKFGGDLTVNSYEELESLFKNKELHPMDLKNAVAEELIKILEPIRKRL
T2 sequence (Q57834 whole entry Y32V/L65E/H70G/F108N/D158A/L162C): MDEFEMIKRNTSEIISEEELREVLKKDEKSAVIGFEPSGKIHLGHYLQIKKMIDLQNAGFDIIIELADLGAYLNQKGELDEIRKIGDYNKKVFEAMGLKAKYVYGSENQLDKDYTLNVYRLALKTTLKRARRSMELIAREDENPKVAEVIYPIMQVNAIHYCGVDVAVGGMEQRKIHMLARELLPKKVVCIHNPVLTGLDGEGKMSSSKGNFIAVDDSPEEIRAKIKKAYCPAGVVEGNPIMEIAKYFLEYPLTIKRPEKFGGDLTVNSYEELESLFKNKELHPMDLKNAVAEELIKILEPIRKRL

Row | Molecule | Fluorescence Instensity ([1]; Synthetase B4RS) | Fluorescence Instensity ([1]; Synthetase B12RS) | Fluorescence Instensity ([1]; Synthetase B37RS) | Fluorescence Instensity ([1]; Synthetase B39RS) | Fluorescence Instensity ([1]; Synthetase C5RS) | Fluorescence Instensity ([1]; Synthetase C45RS) | Fluorescence Instensity ([1]; Synthetase C61RS) | Fluorescence Instensity [2] | Incorporation efficiency (sfGFP fluorescence) versus control without HYs additions ([2]; mutant B48RS, 1 mM HY, E. coli DH10b) | Fluorescence Instensity [3] | GTPase activity, Average [4] [pi/min] | GTPase activity, single repeats [4] | pKa [5, 7] | pKa [5, 8] | pKa of the phenolic side-chain [5] | binding result [6]
1 | N[C@@H](Cc1cc(Br)c(O)c(Br)c1)C(=O)O [Br2Y, 3,5-dibromo-L-tyrosine] | 0.3153 a.u. and 0.3784 a.u. and 0.2551 a.u. | 0.5915 a.u. and 0.6712 a.u. and 0.4959 a.u. | 0.6 a.u. and 0.6999 a.u. and 0.4943 a.u. | 0.615 a.u. and 0.7381 a.u. and 0.4945 a.u. | 0.6366 a.u. and 0.6936 a.u. and 0.5742 a.u. | 0.5945 a.u. and 0.6865 a.u. and 0.5035 a.u. | 0.4306 a.u. and 0.4884 a.u. and 0.3801 a.u. | 0.6442 a.u. and 0.7285 a.u. and 0.5778 a.u. | more than 100 fold | 0.543 a.u. and 0.6311 a.u. and 0.4752 a.u. | 3.469 | 3.2195 pi/min and 3.7182 pi/min | 9.47 | 6.5 | 6.42 and 6.4 | –
2 | N[C@@H](Cc1ccc(O)c(Cl)c1)C(=O)O [ClY, 3-chloro-L-tyrosine] | – | 0.3856 a.u. and 0.4561 a.u. and 0.2986 a.u. | 0.2734 a.u. and 0.2944 a.u. and 0.2525 a.u. | – | 0.8727 a.u. and 1 a.u. and 0.7434 a.u. | 0.8577 a.u. and 0.9724 a.u. and 0.7484 a.u. | 0.5458 a.u. and 0.6071 a.u. and 0.5015 a.u. | 0.5472 a.u. and 0.654 a.u. and 0.4364 a.u. | – | 0.3514 a.u. and 0.3883 a.u. and 0.3147 a.u. | – | – | 9.5 | 8.3 | 8.31 | –
3 | N[C@@H](Cc1cc(I)c(O)c(I)c1)C(=O)O [I2Y, 3,5-diiodo-L-tyrosine] | 0.01117 a.u. and 0.01123 a.u. and 0.01112 a.u. | 0.07137 a.u. and 0.08741 a.u. and 0.05734 a.u. | 0.1118 a.u. and 0.1372 a.u. and 0.08534 a.u. | 0.1743 a.u. and 0.1958 a.u. and 0.1504 a.u. | – | 0.07608 a.u. and 0.1006 a.u. and 0.05086 a.u. | – | 0.00608 a.u. and 0.00634 a.u. and 0.00611 a.u. | – | 0.1172 a.u. and 0.1504 a.u. and 0.08392 a.u. | 1.222 | 1.132 pi/min and 1.3119 pi/min | 9.38 | 6.5 | 6.45 | –
4 | N[C@@H](Cc1ccc(O)c(I)c1)C(=O)O [IY, 3-iodo-L-tyrosine] | – | 0.5049 a.u. and 0.5603 a.u. and 0.4548 a.u. | 0.268 a.u. and 0.305 a.u. and 0.2304 a.u. | 0.1745 a.u. and 0.1928 a.u. and 0.1452 a.u. | 0.6274 a.u. and 0.698 a.u. and 0.5495 a.u. | 0.7321 a.u. and 0.8284 a.u. and 0.6034 a.u. | 0.5143 a.u. and 0.5653 a.u. and 0.452 a.u. | 0.5153 a.u. and 0.5773 a.u. and 0.4545 a.u. | – | 0.4349 a.u. and 0.5128 a.u. and 0.3571 a.u. | – | 1.6686 pi/min and 1.8578 pi/min | 9.37 | 8.3 | – | –
5 | wild type FtsZ-YFP-mts (domain or fragment, UniProt P0A9A6 1-366, looked up, FtsZ, prokaryotic cell-division protein (ftsZ gene product), truncated to residues 1-366; also called FtsZ chimera; FtsZ(1-366) fused with YFP and mts; source: E. coli BL21(DE3), pET-11b, purified (ammonium sulphate precipitation, anion exchange Q-Sepharose)) MFEPMELTNDAVIKVIGVGGGGGNAVEHMVRERIEGVEFFAVNTDAQALRKTAVGQTIQIGSGITKGLGAGANPEVGRNAADEDRDALRAALEGADMVFIAAGMGGGTGTGAAPVVAEVAKDLGILTVAVVTKPFNFEGKKRMAFAEQGITELSKHVDSLITIPNDKLLKVLGRGISLLDAFGAANDVLKGAVQGIAELITRPGLMNVDFADVRTVMSEMGYAMMGSGVASGEDRAEEAAEMAISSPLLEDIDLSGARGVLVNITAGFDLRLDEFETVGNTIRAFASDNATVVIGTSLDPDMNDELRVTVVATGIGMDKRPEITLVTNKQVQQPVMDRYQQHGMAPLTQEQKPVAKVVNDNAPQTA | – | – | – | – | – | – | – | – | – | – | – | – | – | – | – | binds
